Results published in patent US12275731B2, “Azaindole inhibitors of wild-type and mutant forms of LRRK2” (DANA-FARBER CANCER INSTITUTE, INC., priority 2018, dated 2025).

Key:
Test in all cases: KinomeScan profiling
Format in all cases: binding
JNK2 = target: T1, JNK2 (Homo sapiens, UniProt P45984); conditions: JNK2, 1 μM; read-out: % control
T1 construct: purchased KinomeScan®
Outline: (§1)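 Test agents were profiled at a single concentration of 1 μM (DMSO vehicle) on a near-complete set of 468 kinases. Signal is reported relative to vehicle (100%) and a fully displacing control (0%).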

WNK1 = WNK1 (Homo sapiens, UniProt Q9H4A3); conditions: WNK1, 1 μM; read-out: % control
Chain of WNK1 (Q9H4A3 whole entry): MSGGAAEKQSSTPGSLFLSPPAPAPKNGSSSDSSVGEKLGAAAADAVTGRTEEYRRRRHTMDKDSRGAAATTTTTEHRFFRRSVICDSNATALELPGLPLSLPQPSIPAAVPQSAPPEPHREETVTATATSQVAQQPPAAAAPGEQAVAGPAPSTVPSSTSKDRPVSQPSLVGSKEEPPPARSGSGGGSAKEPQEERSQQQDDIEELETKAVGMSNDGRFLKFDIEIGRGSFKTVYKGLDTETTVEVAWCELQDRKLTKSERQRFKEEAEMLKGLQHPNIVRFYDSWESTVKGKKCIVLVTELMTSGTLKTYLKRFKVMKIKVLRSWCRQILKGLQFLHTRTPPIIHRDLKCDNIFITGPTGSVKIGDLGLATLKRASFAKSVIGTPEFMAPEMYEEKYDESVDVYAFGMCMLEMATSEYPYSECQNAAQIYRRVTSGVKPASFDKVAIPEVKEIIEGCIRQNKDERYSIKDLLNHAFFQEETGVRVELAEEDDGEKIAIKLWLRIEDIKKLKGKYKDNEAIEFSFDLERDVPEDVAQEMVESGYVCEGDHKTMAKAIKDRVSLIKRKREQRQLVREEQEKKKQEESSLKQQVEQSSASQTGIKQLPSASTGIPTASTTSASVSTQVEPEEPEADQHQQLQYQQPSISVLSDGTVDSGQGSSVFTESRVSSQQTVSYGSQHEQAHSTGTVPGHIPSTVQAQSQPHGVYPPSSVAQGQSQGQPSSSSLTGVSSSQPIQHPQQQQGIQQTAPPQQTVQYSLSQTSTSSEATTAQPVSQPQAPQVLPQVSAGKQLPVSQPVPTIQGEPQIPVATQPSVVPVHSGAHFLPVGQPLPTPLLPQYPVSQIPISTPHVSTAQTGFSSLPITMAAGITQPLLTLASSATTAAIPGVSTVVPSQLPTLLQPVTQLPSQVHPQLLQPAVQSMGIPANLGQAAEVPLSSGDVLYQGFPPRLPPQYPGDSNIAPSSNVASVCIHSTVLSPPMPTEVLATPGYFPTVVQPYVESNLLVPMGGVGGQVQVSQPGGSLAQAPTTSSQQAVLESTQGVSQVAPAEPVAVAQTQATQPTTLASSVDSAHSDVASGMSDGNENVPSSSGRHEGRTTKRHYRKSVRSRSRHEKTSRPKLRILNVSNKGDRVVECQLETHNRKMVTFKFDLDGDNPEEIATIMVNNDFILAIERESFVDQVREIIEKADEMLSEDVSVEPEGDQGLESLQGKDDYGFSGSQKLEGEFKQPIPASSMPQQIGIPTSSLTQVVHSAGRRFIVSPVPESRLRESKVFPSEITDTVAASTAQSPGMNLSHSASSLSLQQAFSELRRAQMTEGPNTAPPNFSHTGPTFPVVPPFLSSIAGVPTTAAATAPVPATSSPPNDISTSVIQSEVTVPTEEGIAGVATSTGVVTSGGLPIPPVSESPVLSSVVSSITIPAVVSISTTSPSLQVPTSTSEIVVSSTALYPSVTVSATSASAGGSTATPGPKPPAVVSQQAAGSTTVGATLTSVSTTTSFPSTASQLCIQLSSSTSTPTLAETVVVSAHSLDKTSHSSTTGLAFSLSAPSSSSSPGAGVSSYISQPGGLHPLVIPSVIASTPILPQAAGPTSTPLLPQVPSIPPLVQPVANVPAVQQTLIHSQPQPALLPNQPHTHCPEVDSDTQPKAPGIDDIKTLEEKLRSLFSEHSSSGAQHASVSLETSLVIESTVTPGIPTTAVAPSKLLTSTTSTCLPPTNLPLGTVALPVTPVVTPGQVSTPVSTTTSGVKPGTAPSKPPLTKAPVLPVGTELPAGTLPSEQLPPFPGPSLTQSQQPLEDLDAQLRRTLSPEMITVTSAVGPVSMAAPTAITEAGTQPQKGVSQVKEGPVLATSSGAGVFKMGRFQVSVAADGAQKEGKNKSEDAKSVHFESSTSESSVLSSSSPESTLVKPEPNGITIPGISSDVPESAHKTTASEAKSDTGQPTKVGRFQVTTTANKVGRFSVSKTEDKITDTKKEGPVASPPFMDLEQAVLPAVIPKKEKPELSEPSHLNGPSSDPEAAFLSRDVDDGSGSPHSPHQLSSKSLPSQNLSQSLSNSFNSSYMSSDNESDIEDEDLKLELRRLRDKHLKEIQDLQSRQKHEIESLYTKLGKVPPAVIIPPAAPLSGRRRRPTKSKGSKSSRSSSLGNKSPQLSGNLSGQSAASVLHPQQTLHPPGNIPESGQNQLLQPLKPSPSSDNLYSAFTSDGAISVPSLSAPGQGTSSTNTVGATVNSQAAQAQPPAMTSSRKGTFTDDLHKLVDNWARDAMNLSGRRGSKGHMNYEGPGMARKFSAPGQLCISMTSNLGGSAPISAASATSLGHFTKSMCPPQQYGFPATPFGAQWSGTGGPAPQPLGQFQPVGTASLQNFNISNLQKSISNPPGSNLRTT
Outline: as §1

SGK2 = target: T2, SGK2 (Homo sapiens, UniProt Q9HBY8); conditions: SGK2, 1 μM; read-out: % control
T2 construct: purchased KinomeScan® (panel service)
T2 sequence (Q9HBY8 1-367): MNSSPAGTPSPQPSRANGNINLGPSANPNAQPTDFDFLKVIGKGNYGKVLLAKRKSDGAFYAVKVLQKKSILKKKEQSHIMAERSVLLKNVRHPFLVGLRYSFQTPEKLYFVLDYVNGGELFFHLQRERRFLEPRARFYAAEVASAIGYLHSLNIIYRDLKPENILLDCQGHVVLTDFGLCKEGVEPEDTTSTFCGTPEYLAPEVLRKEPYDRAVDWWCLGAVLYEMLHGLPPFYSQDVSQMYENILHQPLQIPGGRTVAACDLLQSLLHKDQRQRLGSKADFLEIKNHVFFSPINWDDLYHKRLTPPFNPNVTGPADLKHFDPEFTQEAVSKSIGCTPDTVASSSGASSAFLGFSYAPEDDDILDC
Outline: as §1

YES = YES (Homo sapiens, UniProt P07947); conditions: read-out: % control
Chain of YES (P07947 whole entry): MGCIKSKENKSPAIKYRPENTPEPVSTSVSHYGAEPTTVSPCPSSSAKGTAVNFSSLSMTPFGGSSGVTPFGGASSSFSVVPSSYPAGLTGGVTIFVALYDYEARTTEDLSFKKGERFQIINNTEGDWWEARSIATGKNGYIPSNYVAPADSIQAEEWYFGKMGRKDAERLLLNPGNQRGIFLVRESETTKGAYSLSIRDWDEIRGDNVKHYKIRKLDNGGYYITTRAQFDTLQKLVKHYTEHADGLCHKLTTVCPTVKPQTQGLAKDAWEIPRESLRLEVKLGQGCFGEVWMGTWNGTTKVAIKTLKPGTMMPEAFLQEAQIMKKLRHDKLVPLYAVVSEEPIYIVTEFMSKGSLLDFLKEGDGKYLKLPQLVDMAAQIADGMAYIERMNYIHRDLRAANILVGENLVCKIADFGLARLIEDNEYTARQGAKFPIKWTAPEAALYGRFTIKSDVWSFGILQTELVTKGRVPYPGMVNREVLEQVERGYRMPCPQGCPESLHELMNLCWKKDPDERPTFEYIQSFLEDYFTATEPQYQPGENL
Outline: as §1

MLK2 = MLK2 (Homo sapiens, UniProt Q02779); conditions: MLK2, 1 μM; read-out: % control
Chain of MLK2 (Q02779 whole entry): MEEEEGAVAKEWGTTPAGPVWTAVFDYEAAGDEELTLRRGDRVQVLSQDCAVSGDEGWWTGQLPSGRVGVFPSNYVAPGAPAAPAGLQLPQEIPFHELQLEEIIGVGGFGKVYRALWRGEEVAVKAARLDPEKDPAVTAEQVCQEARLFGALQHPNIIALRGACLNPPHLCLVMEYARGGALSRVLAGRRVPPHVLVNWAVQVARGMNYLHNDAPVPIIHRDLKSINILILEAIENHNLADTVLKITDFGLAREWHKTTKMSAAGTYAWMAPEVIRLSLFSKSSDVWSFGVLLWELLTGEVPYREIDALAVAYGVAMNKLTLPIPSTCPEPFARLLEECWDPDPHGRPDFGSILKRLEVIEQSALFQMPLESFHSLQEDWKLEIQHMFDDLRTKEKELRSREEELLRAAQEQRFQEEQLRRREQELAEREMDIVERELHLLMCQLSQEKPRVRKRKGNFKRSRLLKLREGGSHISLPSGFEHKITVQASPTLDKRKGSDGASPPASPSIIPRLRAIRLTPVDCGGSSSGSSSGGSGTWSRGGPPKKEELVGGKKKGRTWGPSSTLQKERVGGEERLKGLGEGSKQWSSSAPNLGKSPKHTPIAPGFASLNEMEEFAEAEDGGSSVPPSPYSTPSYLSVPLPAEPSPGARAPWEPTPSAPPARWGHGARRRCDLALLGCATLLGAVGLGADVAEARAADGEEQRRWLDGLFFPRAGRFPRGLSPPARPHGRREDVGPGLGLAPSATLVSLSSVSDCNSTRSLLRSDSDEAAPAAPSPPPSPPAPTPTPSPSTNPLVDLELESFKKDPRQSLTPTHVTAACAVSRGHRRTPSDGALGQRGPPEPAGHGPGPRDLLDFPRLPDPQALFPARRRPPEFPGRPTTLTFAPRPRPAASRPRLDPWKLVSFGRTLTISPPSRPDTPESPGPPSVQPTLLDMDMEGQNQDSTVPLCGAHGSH
Outline: as §1

MINK = MINK (Homo sapiens, UniProt Q8N4C8); conditions: read-out: % control
Outline: as §1

ACVRL1 = target: T3, ACVRL1 (Homo sapiens, UniProt P37023); conditions: ACVRL1, 1 μM; read-out: % control
T3 construct: purchased KinomeScan®
T3 sequence (P37023 22-503): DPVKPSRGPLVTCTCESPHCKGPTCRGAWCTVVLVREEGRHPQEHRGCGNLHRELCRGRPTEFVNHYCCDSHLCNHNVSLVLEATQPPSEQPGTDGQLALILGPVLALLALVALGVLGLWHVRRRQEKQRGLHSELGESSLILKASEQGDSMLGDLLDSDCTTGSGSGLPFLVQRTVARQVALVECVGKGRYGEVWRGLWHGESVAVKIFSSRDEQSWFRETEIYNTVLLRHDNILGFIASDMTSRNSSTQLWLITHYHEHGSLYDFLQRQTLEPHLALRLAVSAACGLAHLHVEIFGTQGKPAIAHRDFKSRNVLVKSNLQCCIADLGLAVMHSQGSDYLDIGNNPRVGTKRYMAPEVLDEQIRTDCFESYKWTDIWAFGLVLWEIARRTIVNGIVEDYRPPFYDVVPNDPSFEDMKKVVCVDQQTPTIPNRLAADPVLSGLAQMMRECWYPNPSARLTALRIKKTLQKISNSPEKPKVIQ
Outline: as §1

TIE2 = TIE2 (Homo sapiens, UniProt Q02763); conditions: TIE2, 1 μM; read-out: % control
Outline: as §1

CAMK2A = CAMK2A (Homo sapiens, UniProt Q9UQM7); conditions: read-out: % control
Chain of CAMK2A (Q9UQM7 whole entry): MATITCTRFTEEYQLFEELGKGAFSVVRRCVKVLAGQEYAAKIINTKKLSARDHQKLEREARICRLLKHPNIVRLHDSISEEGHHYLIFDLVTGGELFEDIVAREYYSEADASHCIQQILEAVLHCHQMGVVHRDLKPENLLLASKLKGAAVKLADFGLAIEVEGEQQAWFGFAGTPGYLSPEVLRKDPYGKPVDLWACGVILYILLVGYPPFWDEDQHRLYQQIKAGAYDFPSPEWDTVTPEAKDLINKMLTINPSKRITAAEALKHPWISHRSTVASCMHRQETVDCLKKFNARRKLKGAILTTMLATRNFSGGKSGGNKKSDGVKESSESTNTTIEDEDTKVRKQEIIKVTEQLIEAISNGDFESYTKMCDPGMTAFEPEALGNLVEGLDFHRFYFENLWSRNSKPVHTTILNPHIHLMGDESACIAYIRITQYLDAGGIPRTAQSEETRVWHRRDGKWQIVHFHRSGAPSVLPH
Outline: as §1

LATS1 = target: T4, LATS1 (Homo sapiens, UniProt O95835); conditions: LATS1, 1 μM; read-out: % control
T4 construct: purchased KinomeScan®
T4 sequence (O95835 1-1130): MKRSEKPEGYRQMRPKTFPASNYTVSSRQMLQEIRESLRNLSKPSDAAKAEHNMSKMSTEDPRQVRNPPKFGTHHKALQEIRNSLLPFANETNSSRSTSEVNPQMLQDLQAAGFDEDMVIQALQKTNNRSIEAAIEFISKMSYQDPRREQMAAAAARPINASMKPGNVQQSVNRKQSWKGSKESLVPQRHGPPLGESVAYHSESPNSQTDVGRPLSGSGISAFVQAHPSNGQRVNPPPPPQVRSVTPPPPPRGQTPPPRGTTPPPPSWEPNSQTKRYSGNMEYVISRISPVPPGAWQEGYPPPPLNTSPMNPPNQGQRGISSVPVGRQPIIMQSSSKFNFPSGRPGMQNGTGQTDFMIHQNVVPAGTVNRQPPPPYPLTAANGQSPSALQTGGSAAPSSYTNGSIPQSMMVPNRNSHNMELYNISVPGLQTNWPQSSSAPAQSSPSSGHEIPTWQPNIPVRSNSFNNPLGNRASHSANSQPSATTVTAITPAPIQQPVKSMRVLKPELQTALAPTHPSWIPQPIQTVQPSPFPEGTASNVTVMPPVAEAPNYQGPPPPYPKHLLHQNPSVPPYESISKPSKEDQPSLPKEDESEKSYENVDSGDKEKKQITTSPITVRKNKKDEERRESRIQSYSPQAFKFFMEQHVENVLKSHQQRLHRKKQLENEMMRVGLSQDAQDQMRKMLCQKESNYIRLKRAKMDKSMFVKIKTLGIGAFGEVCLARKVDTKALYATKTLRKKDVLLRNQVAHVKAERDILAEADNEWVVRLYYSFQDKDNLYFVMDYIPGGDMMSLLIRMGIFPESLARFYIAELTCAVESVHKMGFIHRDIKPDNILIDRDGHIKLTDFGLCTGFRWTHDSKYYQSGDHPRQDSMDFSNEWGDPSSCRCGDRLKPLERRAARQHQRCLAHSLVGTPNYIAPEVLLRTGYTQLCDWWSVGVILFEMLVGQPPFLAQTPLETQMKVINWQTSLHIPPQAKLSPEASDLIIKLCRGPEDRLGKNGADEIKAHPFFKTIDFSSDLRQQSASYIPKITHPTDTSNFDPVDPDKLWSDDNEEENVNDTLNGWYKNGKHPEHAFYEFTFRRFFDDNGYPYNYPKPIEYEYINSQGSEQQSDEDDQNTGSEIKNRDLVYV
Outline: as §1

TSSK1B = target: T5, TSSK1B (Homo sapiens, UniProt Q9BXA7); conditions: read-out: % control
T5 sequence (Q9BXA7 1-367): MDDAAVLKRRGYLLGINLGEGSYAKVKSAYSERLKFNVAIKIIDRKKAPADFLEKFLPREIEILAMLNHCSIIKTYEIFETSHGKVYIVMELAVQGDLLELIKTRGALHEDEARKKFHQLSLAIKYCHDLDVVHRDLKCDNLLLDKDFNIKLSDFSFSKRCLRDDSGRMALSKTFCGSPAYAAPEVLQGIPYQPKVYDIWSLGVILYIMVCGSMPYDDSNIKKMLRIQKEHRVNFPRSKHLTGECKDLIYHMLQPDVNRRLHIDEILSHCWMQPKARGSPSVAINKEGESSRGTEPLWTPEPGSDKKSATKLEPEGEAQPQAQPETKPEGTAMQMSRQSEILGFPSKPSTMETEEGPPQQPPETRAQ
Outline: as §1

| SMILES | remaining binding at 1 µM (JNK2) [%] | remaining binding at 1 µM (WNK1) [%] | remaining binding at 1 µM (SGK2) [%] | remaining binding at 1 µM (YES) [%] | remaining binding at 1 µM (MLK2) [%] | remaining binding at 1 µM (MINK) [%] | remaining binding at 1 µM (ACVRL1) [%] | remaining binding at 1 µM (TIE2) [%] | remaining binding at 1 µM (CAMK2A) [%] | remaining binding at 1 µM (LATS1) [%] | remaining binding at 1 µM (TSSK1B) [%] |
| --- | --- | --- | --- | --- | --- | --- | --- | --- | --- | --- | --- |
| O=C(c1ccc(-c2cnc3[nH]cc(Cl)c3c2NC2CCCC2)cc1)N1CCC(N2CCOCC2)CC1 [Compound 101, (4-(3-chloro-4-(cyclopentylamino)-1H-pyrrolo[2,3-b]pyridin-5-yl)phenyl)(4-morpholinopiperidin-1-yl)methanone] | 8.8 | 90 | 65 | 100 | 69 | 62 | 100 | 97 | 92 | 100 | 41 |
| CNc1c(-c2cnn([C@H]3CCN(C(C)=O)C[C@@H]3F)c2)cnc2[nH]cc(Cl)c12 [Compound 77, 1-((3S,4S)-4-(4-(3-chloro-4-(methylamino)-1H-pyrrolo[2,3-b]pyridin-5-yl)-1H-pyrazol-1-yl)-3-fluoropiperidin-1-yl)ethan-1-one] | 17 | 67 | 43 | 100 | 62 | 17 | 100 | 80 | 100 | 91 | 99 |
| CNc1c(-c2ccc(C(=O)N3CCC(N4CCOCC4)CC3)cc2)cnc2[nH]cc(Cl)c12 [Compound 96, (4-(3-chloro-4-(methylamino)-1H-pyrrolo[2,3-b]pyridin-5-yl)phenyl)(4-morpholinopiperidin-1-yl)methanone] | 0.85 | 80 | 30 | 100 | 39 | 6 | 100 | 81 | 96 | 100 | 100 |
